Assay results reported in US7923554B2, “HIV inhibiting 1,2,4-triazin-6-one derivatives” (Janssen Pharmaceutica N.V., priority 2004, dated 2011).

Test system: HIV-1
Experiment: microbe, parasite or virus in culture
Settings: Human immunodeficiency virus 1, MT4, read-out: pEC50 (-logEC50) (converted)
Method: A rapid, sensitive and automated assay procedure was used for the in vitro evaluation of anti-HIV agents. […] In these cells, engineered with GFP (and an HIV-specific promotor), ongoing HIV-infection was measured fluorometrically. Cytotoxicity is measured in the same cells, but engineered with GFP under a constitutional promotor. The infection (or inhibition thereof) of HIV infected cells and the fluorescence of mock-infected cells is assessed by the fluorescent GFP signal generated by the two above mentioned cell lines.
`N#CCCc1cc(Br)c(Nc2n[nH]c(=O)c(Nc3ccc(C#N)cc3)n2)c(Br)c1` [Compound 2] gave an EC50 of 100 pM. For `Cc1cc(CCC#N)cc(C)c1Oc1n[nH]c(=O)c(Nc2ccc(C#N)cc2)n1` [Compound 3], the EC50 was 631 pM. With `Cc1cc(/C=C/C#N)cc(C)c1Nc1n[nH]c(=O)c(Nc2ccc(C#N)cc2)n1` [Compound 4] the EC50 was 631 pM. In the case of `Cc1cc(CCC#N)cc(C)c1Nc1nc(Nc2ccc(C#N)cc2)c(=O)n(C)n1` [Compound 9], the EC50 is reported as 501 pM. Work on `N#Cc1ccc(Nc2nc(Nc3c(F)cc(Br)cc3F)n[nH]c2=O)cc1` [Compound 10] yielded an EC50 of 316 pM. `Cc1cc(CCC#N)cc(C)c1Nc1nc(Nc2ccc(C#N)cc2)c(=O)n(CCO)n1` [Compound 14] gave an EC50 of 316 pM. `Cc1cc(C)c(Nc2nc(Nc3ccc(C#N)cc3)n[nH]c2=O)c(C)c1` [Compound 16] gave an EC50 of 1000 pM. `Cn1nc(Nc2c(Cl)cc(CCC#N)cc2Cl)nc(Nc2ccc(C#N)cc2)c1=O` [Compound 17] gave an EC50 of 1000 pM. With `Cc1cc(C)c(Nc2nc(Nc3ccc(C#N)cc3)nn(C)c2=O)c(C)c1` [Compound 18] the EC50 was 12600 pM. Work on `N#CCCc1cc(Cl)c(Nc2n[nH]c(=O)c(Nc3ccc(C#N)cc3)n2)c(Br)c1` [Compound 19] yielded an EC50 of 6310 pM. `Cc1cc(C)c(Sc2nc(Nc3ccc(C#N)cc3)n[nH]c2=O)c(C)c1` [Compound 20] showed an EC50 of 631 pM. In the case of `Cn1nc(Nc2c(Cl)cc(CCC#N)cc2Br)nc(Nc2ccc(C#N)cc2)c1=O` [Compound 21], the EC50 is reported as 1000 pM. `Cc1cc(C)c(Sc2nc(Nc3ccc(C#N)cc3)nn(C)c2=O)c(C)c1` [Compound 22] showed an EC50 of 15800 pM. With `Cc1cc(C)c(Nc2n[nH]c(=O)c(Nc3ccc(C#N)cc3)n2)c(C)c1` [Compound 23] the EC50 was 794 pM. `N#C/C=C/c1cc(Cl)c(Nc2n[nH]c(=O)c(Nc3ccc(C#N)cc3)n2)c(Cl)c1` [Compound 24] showed an EC50 of 631 pM. `N#C/C=C/c1cc(Cl)c(Nc2n[nH]c(=O)c(Nc3ccc(C#N)cc3)n2)c(Br)c1` [Compound 25] gave an EC50 of 631 pM. Compound `N#C/C=C/c1cc(Br)c(Nc2n[nH]c(=O)c(Nc3ccc(C#N)cc3)n2)c(Br)c1` [Compound 26] has an EC50 of 631 pM. `Cc1cc(/C=C/C#N)cc(C)c1Nc1nc(Nc2ccc(C#N)cc2)n[nH]c1=O` [Compound 27] gave an EC50 of 200 pM. In the case of `Cc1cc(/C=C/C#N)cc(C)c1Nc1nc(Nc2ccc(C#N)cc2)nn(C)c1=O` [Compound 28], the EC50 is reported as 3980 pM. `COc1cc(/C=C/C#N)cc(C)c1Nc1n[nH]c(=O)c(Nc2ccc(C#N)cc2)n1` [Compound 29] showed an EC50 of 316000 pM. Work on `Cc1cc(CCC#N)cc(C)c1Nc1nc(Nc2ccc(C#N)cc2)c(=O)n(CC#N)n1` [Compound 31] yielded an EC50 of 316 pM. Work on `Cc1cc(CCC#N)cc(C)c1Nc1nc(Nc2ccc(C#N)cc2)c(=O)n(CC(N)=O)n1` [Compound 33] yielded an EC50 of 631 pM. `COc1cc(C)c(Nc2nc(Nc3ccc(C#N)cc3)c(=O)n(C)n2)c(C)c1` [Compound 35] showed an EC50 of 10000 pM. Compound `CCn1nc(Nc2c(C)cc(CCC#N)cc2C)nc(Nc2ccc(C#N)cc2)c1=O` [Compound 37] has an EC50 of 126 pM. `N#C/C=C/c1cc(F)c(Nc2n[nH]c(=O)c(Nc3ccc(C#N)cc3)n2)c(F)c1` [Compound 38] showed an EC50 of 126 pM. `COc1cc(CCC#N)cc(C)c1Nc1n[nH]c(=O)c(Nc2ccc(C#N)cc2)n1` [Compound 39] showed an EC50 of 100 pM. For `CCn1nc(Nc2c(C)cc(CCC#N)cc2OC)nc(Nc2ccc(C#N)cc2)c1=O` [Compound 40], the EC50 was 316 pM. For `COc1cc(/C=C/C#N)cc(C)c1Nc1nc(Nc2ccc(C#N)cc2)c(=O)n(C)n1` [Compound 42], the EC50 was 398 pM. With `Cc1cc(C)c(Sc2nc(Nc3ccc(C#N)cc3)c(=O)n(C)n2)c(C)c1` [Compound 43] the EC50 was 316 pM. For `Cc1cc(C#N)cc(C)c1Nc1nc(Nc2ccc(C#N)cc2)c(=O)n(C)n1` [Compound 46], the EC50 was 251 pM. Work on `COc1cc(CCC#N)cc(C)c1Nc1nc(Nc2ccc(C#N)cc2)c(=O)n(CCO)n1` [Compound 47] yielded an EC50 of 794 pM. For `Cc1cc(C#N)cc(C)c1Oc1n[nH]c(=O)c(Nc2ccc(C#N)cc2)n1` [Compound 48], the EC50 was 398 pM. For `N#CCCc1cc(Br)c(Nc2n[nH]c(=O)c(Nc3ccc(C#N)cc3Br)n2)c(Br)c1` [Compound 49], the EC50 was 316 pM. `Cc1cc(C#N)cc(C)c1Oc1nc(Nc2ccc(C#N)cc2)c(=O)n(C)n1` [Compound 50] showed an EC50 of 158 pM. Compound `Cc1cc(CCC#N)cc(C)c1Oc1nc(Nc2ccc(C#N)cc2)c(=O)n(CC#N)n1` [Compound 53] has an EC50 of 398 pM. In the case of `CCn1nc(Nc2c(C)cc(/C=C/C#N)cc2C)nc(Nc2ccc(C#N)cc2)c1=O` [Compound 54], the EC50 is reported as 75900 pM. Work on `Cc1cc(CCC#N)cc(C)c1Oc1nc(Nc2ccc(C#N)cc2)c(=O)n(C)n1` [Compound 56] yielded an EC50 of 631 pM. For `N#CCCc1cc(Cl)c(Nc2n[nH]c(=O)c(Nc3ccc(C#N)cc3)n2)c(Cl)c1` [Compound 58], the EC50 was 3160 pM. In the case of `Cc1cc(/C=C/C#N)cc(C)c1Oc1n[nH]c(=O)c(Nc2ccc(C#N)cc2)n1` [Compound 59], the EC50 is reported as 1260 pM. `Cc1cc(/C=C/C#N)cc(C)c1Oc1nc(Nc2ccc(C#N)cc2)c(=O)n(C)n1` [Compound 60] showed an EC50 of 2510 pM. Compound `Cc1cc(/C=C/C#N)cc(C)c1Oc1nc(Nc2ccc(C#N)cc2)c(=O)n(CC#N)n1` [Compound 61] has an EC50 of 1260 pM. With `Cc1cc(/C=C/C#N)cc(C)c1Oc1nc(Nc2ccc(C#N)cc2)c(=O)n(CCO)n1` [Compound 62] the EC50 was 316 pM. In the case of `COc1cc(CCC#N)c(Br)cc1Nc1n[nH]c(=O)c(Nc2ccc(C#N)cc2)n1` [Compound 67], the EC50 is reported as 1510 pM. Compound `C/C(C#N)=C\c1cc(C)c(Nc2n[nH]c(=O)c(Nc3ccc(C#N)cc3)n2)c(C)c1` [Compound 68] has an EC50 of 1200 pM. Work on `CCn1nc(Oc2c(C)cc(CCC#N)cc2C)nc(Nc2ccc(C#N)cc2)c1=O` [Compound 69] yielded an EC50 of 891 pM. With `Cc1cc(CCC#N)cc(C)c1Oc1nc(Nc2ccc(C#N)cc2)c(=O)n(CCO)n1` [Compound 70] the EC50 was 794 pM. With `COc1cc(/C=C/C#N)cc(Cl)c1Nc1n[nH]c(=O)c(Nc2ccc(C#N)cc2)n1` [Compound 71] the EC50 was 794 pM. `COc1cc(CCC#N)cc(Cl)c1Nc1nc(Nc2ccc(C#N)cc2)c(=O)n(C)n1` [Compound 72] gave an EC50 of 631 pM. For `CCn1nc(Nc2c(Cl)cc(CCC#N)cc2OC)nc(Nc2ccc(C#N)cc2)c1=O` [Compound 73], the EC50 was 631 pM. `COc1cc(CCC#N)cc(Cl)c1Nc1nc(Nc2ccc(C#N)cc2)c(=O)n(CCO)n1` [Compound 74] gave an EC50 of 794 pM. `COc1cc(CCC#N)cc(Cl)c1Nc1nc(Nc2ccc(C#N)cc2)c(=O)n(CC#N)n1` [Compound 75] showed an EC50 of 794 pM. Compound `C/C(=C\C#N)c1cc(C)c(Nc2n[nH]c(=O)c(Nc3ccc(C#N)cc3)n2)c(C)c1` [Compound 77] has an EC50 of 794 pM. With `C/C(=C\C#N)c1cc(C)c(Nc2nc(Nc3ccc(C#N)cc3)c(=O)n(C)n2)c(C)c1` [Compound 78] the EC50 was 794 pM.

Test system: not given
Experiment: not given
Settings: not given
In the case of `Cc1cc(CCC#N)cc(C)c1Nc1nc(Nc2ccc(C#N)cc2)c(=O)n(CC#N)n1`, the melting point is reported as 243 to 246 °C. `N#Cc1ccc(Nc2nc(Nc3c(F)cc(I)cc3F)n[nH]c2=O)cc1` [Compound 1] gave a melting point of 287 to 290 °C. With `N#CCCc1cc(Br)c(Nc2n[nH]c(=O)c(Nc3ccc(C#N)cc3)n2)c(Br)c1` [Compound 2] the melting point was 339 to 340 °C. Compound `Cc1cc(CCC#N)cc(C)c1Oc1n[nH]c(=O)c(Nc2ccc(C#N)cc2)n1` [Compound 3] has a melting point of 351 to 352 °C. With `Cc1cc(C)c(S(=O)(=O)c2n[nH]c(=O)c(Nc3ccc(C#N)cc3)n2)c(C)c1` [Compound 7] the melting point was 303 to 304 °C. With `Cc1cc(CCC#N)cc(C)c1Nc1nc(Nc2ccc(C#N)cc2)c(=O)n(C)n1` [Compound 9] the melting point was 317 to 320 °C. `N#CCCn1nc(Nc2c(F)cc(Br)cc2F)nc(Nc2ccc(C#N)cc2)c1=O` [Compound 11] gave a melting point of 246 to 247 °C. Work on `CCn1nc(Nc2c(C)cc(CCC#N)cc2C)nc(Nc2ccc(C#N)cc2)c1=O` [Compound 15] yielded a melting point of 243 to 245 °C.

Test system: HIV-1
Experiment: not given
Settings: not given
With `N#Cc1ccc(Nc2nc(Nc3c(F)cc(I)cc3F)n[nH]c2=O)cc1` [Compound 1] the “pEC50 (-logEC50)” value was 9.5. For `Cc1cc(CCC#N)cc(C)c1Nc1n[nH]c(=O)c(Nc2ccc(C#N)cc2)n1` [Compound 5], the “pEC50 (-logEC50)” value was 9.6. In the case of `Cc1cc(C)c(Sc2n[nH]c(=O)c(Nc3ccc(C#N)cc3)n2)c(C)c1` [Compound 6], the “pEC50 (-logEC50)” value is reported as 7.8. In the case of `Cc1cc(C)c(S(=O)(=O)c2n[nH]c(=O)c(Nc3ccc(C#N)cc3)n2)c(C)c1` [Compound 7], the “pEC50 (-logEC50)” value is reported as 7.7. In the case of `Cn1nc(Nc2c(Br)cc(CCC#N)cc2Br)nc(Nc2ccc(C#N)cc2)c1=O` [Compound 8], the “pEC50 (-logEC50)” value is reported as 10.0. For `N#CCCn1nc(Nc2c(F)cc(Br)cc2F)nc(Nc2ccc(C#N)cc2)c1=O` [Compound 11], the “pEC50 (-logEC50)” value was 9.1. For `CCn1nc(Nc2c(C)cc(CCC#N)cc2C)nc(Nc2ccc(C#N)cc2)c1=O` [Compound 15], the “pEC50 (-logEC50)” value was 9.7. For `N#Cc1ccc(Nc2nc(Nc3c(F)cc(Br)cc3F)n[nH]c2=O)cc1` [Compound 30], the “pEC50 (-logEC50)” value was 9.2. For `Cc1cc(CCC#N)cc(C)c1Nc1n[nH]c(=O)c(Nc2ccc(C#N)cc2)n1` [Compound 32], the “pEC50 (-logEC50)” value was 8.9. For `N#CCCn1nc(Nc2c(F)cc(Br)cc2F)nc(Nc2ccc(C#N)cc2)c1=O` [Compound 34], the “pEC50 (-logEC50)” value was 8.5. For `N#Cc1ccc(Nc2nc(Nc3c(F)cc(I)cc3F)n[nH]c2=O)cc1` [Compound 36], the “pEC50 (-logEC50)” value was 9.9. For `Cc1cc(C)c(Sc2n[nH]c(=O)c(Nc3ccc(C#N)cc3)n2)c(C)c1` [Compound 41], the “pEC50 (-logEC50)” value was 9.7. With `Cc1cc(CCC#N)cc(C)c1Nc1n[nH]c(=O)c(Nc2ccc(C#N)cc2)n1` [Compound 51] the “pEC50 (-logEC50)” value was 9.6. In the case of `Cc1cc(C)c(S(=O)(=O)c2n[nH]c(=O)c(Nc3ccc(C#N)cc3)n2)c(C)c1` [Compound 52], the “pEC50 (-logEC50)” value is reported as 8.8. For `Cn1nc(Nc2c(Br)cc(CCC#N)cc2Br)nc(Nc2ccc(C#N)cc2)c1=O` [Compound 55], the “pEC50 (-logEC50)” value was 9. In the case of `COc1cc(CCC#N)c(Br)cc1Nc1n[nH]c(=O)c(Nc2ccc(C#N)cc2)n1` [Compound 67], the “pEC50 (-logEC50)” value is reported as 9.0.
